Patent US20120083501A1, “COMPOUNDS FOR TREATING NEURODEGENERATIVE DISEASES” (priority 2010, published 2012)
pIC50: −log10 of the molar value.

biological target: T1, BACE1 (Homo sapiens, UniProt P56817); experiment: Cellular BACE1 Inhibition Assay (in vitro cellular Amyloidβ 1-40 production, HTRF immunoassay); type: cell-based; details: inhibition of Amyloidβ 1-40 production; HEK-293 cells stably transfected with wild type APP695; 48 hours incubation; single assay or mean of multiple assays
T1 construct: endogenous in cells; host or cells: HEK-293 cells stably transfected with wild type APP695
T1 sequence (P56817 46-501): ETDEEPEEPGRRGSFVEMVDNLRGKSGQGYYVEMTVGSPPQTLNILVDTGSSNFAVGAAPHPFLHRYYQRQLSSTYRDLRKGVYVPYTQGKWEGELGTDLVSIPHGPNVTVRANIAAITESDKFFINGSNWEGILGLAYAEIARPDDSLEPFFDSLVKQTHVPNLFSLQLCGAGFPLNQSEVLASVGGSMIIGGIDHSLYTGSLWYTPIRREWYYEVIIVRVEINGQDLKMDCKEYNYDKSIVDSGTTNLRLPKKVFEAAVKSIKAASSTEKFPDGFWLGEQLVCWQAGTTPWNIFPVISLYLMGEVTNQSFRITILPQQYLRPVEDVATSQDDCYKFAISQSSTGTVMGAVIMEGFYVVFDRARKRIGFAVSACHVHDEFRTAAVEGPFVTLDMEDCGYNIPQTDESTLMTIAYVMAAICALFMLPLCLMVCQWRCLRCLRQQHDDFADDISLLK
Protocol: The BACE inhibition properties of the compounds of the invention may be determined by the following in vitro cellular Amyloidβ 1-40 production assay.
Inhibition of Amyloidβ 1-40 production was determined by incubating cells with compound for 48 hours and quantifying the level of Amyloidβ 1-40 using an homogeneous time-resolved fluorescence (“HTRF”) immunoassay.
Materials and Methods: HEK-293 cells stably transfected with a DNA construct containing the coding sequence for the wild type APP695 sequence were grown in Dulbecco's Modified Eagle Medium (“DMEM”) supplemented with 10% fetal bovine serum, penicillin/streptomycin and 150 μg/mL G418. Cells were plated in 96-well plates at 35,000 cells/well and allowed to attach for 8-12 hours. Media was changed to DMEM supplemented with 10% fetal bovine serum, penicillin/streptomycin 15 minutes prior to compound addition. Diluted compounds were then added at a final concentration of 0.5% DMSO. After 48 hours, 4 μL of media from each well was added to a corresponding well of a 384 well plate (Perkin Elmer Cat#6008280) containing the HTRF reagents. HTRF reagents were obtained from the CisBio Amyloidβ 1-40 peptide assay kit (Cat# 62B40PEC) and were prepared as follows anti-peptide β (1-40)-Cryptate and anti-peptide β (1-40)-XL655 were stored in 2 plate aliquots at −80° C. Diluent and Reconstitution buffer were stored at 4° C. Aliquots of the two antibodies were diluted 1:100 with Reconstitution buffer, and this mixture was diluted 1:2 with Diluent. 12 μL of the reagent mixture was added to the required wells of the 384 well assay plate. The assay plate was incubated at 4° C. for 17 hours and then analyzed for fluorescence at 665 and 620 nm. The reported IC50 below may be from a single assay or the mean of multiple assays.

pIC50 | Compound
6.66 | CN1C(=O)C2(N=C1N)c1cc(-c3cccc(OC(F)F)c3)ccc1OC1CC(F)(F)CCC12 (stereo not drawn) [Example 36, 2-amino-7′-(3-(difluoromethoxy)phenyl)-3′,3′-difluoro-1-methyl-1′,2′,3′,4′,4a′,9a′-hexahydrospiro[imidazole-4,9′-xanthen]-5(1H)-one]
7.38 | CN1C(=O)C2(N=C1N)c1cc(-c3cccnc3F)ccc1OC1CCC(F)(F)CC12 (stereo not drawn) [Example 41, 2-amino-2′,2′-difluoro-7′-(2-fluoropyridin-3-yl)-1-methyl-1′,2′,3′,4′,4a′,9a′-hexahydrospiro[imidazole-4,9′-xanthen]-5(1H)-one]
8.82 | CN1C(=O)[C@]2(N=C1N)c1cc(-c3cncc(Cl)c3)ccc1O[C@H]1CCCO[C@@H]12 [Example 78, (4S,4a′S,10a′R)-2-amino-8′-(5-chloropyridin-3-yl)-1-methyl-3′,4′,4a′,10a′-tetrahydro-2′H-spiro[imidazole-4,10′-pyrano[3,2-b]chromen]-5(1H)-one]
8.41 | CN1C(=O)C2(N=C1N)c1cc(-c3cccnc3F)ccc1O[C@H]1CC(O)CC[C@@H]12 (stereo partly drawn) [Example 96, (4a′S,9a′R)-2-amino-7′-(2-fluoropyridin-3-yl)-3′-hydroxy-1-methyl-1′,2′,3′,4′,4a′,9a′-hexahydrospiro[imidazole-4,9′-xanthen]-5(1H)-one]

The remaining lines, values behind:

Compound | pIC50
CN1C(=O)C2(N=C1N)c1cc(-c3cncc(Cl)c3)ccc1C[C@H]1CCOC[C@@H]12 (stereo partly drawn) [Example 69, (4aS,10aS)-2′-amino-8-(5-chloropyridin-3-yl)-1′-methyl-1,3,4,4a,5,10a-hexahydrospiro[benzo[g]isochromene-10,4′-imidazol]-5′(1′H)-one] | 9.10
CN1C(=O)[C@]2(N=C1N)c1cc(-c3cncc(C#N)c3)ccc1O[C@H]1CCCO[C@@H]12 [Example 79, 5-((4S,4a′S,10a′R)-2-amino-1-methyl-5-oxo-1,3′,4′,4a′,5,10a′-hexahydro-2′H-spiro[imidazole-4,10′-pyrano[3,2-b]chromen]-8′-yl)nicotinonitrile] | 8.37
CN1C(=O)[C@]2(N=C1N)c1cc(-c3cncc(C#N)c3)ccc1O[C@H]1CCCO[C@@]12C [Example 86, 5-((4S,4a′S,10a′R)-2-amino-1,10a′-dimethyl-5-oxo-1,3′,4′,4a′,5,10a′-hexahydro-2′H-spiro[imidazole-4,10′-pyrano[3,2-b]chromen]-8′-yl)nicotinonitrile] | 8.34
CN1C(=O)[C@]2(N=C1N)c1cc(-c3cccnc3F)ccc1O[C@H]1CCOCC12F (stereo partly drawn) [Example 99, (4R,4a′S)-2-amino-10a′-fluoro-8′-(2-fluoropyridin-3-yl)-1-methyl-3′,4′,4a′,10a′-tetrahydro-1′H-spiro[imidazole-4,10′-pyrano[4,3-b]chromen]-5(1H)-one] | 6.62
COc1ccc2c(c1)C1(N=C(N)N(C)C1=O)[C@H]1COCC[C@@H]1C2 (stereo partly drawn) [Example 107, (4aS,10aS)-2′-amino-8-methoxy-1′-methyl-1,3,4,4a,5,10a-hexahydrospiro[benzo[g]isochromene-10,4′-imidazol]-5′(1′H)-one] | 6.10
